Measurements: patent US4822606A, “Immunosuppressive synthetic peptides and analogs thereof based on retroviral envelope sequences” (Duke University, priority 1986, dated 1989)
Ends that are not written are not given here.

How the values were obtained:
[1] = system: murine CTLL-2 cells; assay: Murine cytotoxic T lymphocyte (CTLL-2) IL-2 dependent proliferation assay; type: cell-based; conditions: for effect upon CTLL-2 cell proliferation: peptides coupled to BSA or control BSA, same conditions as the active peptide; for average inhibition of CTLL-2 proliferation: coupled to BSA, CS-1 5 experiments, CS-3 4 experiments;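 on all read-outs here: CTLL-2 cells, 4 x 10^3 per well in 96-well plates with RPMI plus 6% FBS, proliferation read as cell-bound radioactivity counted by liquid scintillation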
Method: Fifty μ1 of RPMI (6% FBS, 0% IL-2) containing 4 x 10^3 CTLL-2 cells was added to each well of a 96 well tissue culture plate (Falcon, Oxnard, CA). To each well was then added 50 μl of RPMI 1640 containing 3% human IL-2 50 μl of either RPMI or RPMI containing synthetic peptides. Cultures were then incubated for 24 hours at 37° C. in humidified 5% CO^2 Fifty μl of RPMI containing 1 μCi of ^3 H-thymidine (6.7 Ci/mmole; New England Nuclear, Boston, MA) was added to each well for the final 4 hours of cultures. Cells were collected by filtration onto glass fiber filters and incorporated radioactivity determined by liquid scintillation spectrophotometry.

[2] = system: human monocytes; assay: Monocyte superoxide anion (O2^-) release; type: cell-based; conditions: WGA stimulated, peptide coupled to BSA, mean ± SE
[3] = system: lymphocytes from two non-related individuals; assay: Human two-way mixed leukocyte culture (MLC); type: cell-based; conditions: 4 experiments, 6-day culture, coupled to BSA
Method: Fifty μl of RPMI containing 1×10^5 lymphocytes from each of two non-related individuals was added to each well of a 96 well tissue culture plate. An additional 50 μl of RPMI was added and cultures were incubated at 37° C. in humidified 5% CO2 for 5 days. Fifty μl of RPMI containing either peptide or no addition was added for an additional 24 hr. During the final 4 hr of incubation each well was incubated with 25 μl of RPMI containing 0.5 μCi of ^3 H-thymidine and incorporated radionucleotide determined as above.

[4] = system: OKT3-stimulated human lymphocytes; assay: Human lymphocyte proliferative response to OKT3 antibody; type: cell-based; conditions: 5 experiments, 3 days, coupled to BSA
Method: One hundred μl of RPMI containing 2×10^5 lymphocytes was added to each well of a 96 well tissue culture plate. Fifty μl of RPMI containing either peptide or no addition was added for 2 hr at 37° C followed by the addition of 50 μl of RPMI containing nothing or Con A (40 μg/ml) or OKT3 antibody (1:1000 dilution). The cultures were incubated for 72 hr at 37° C. in 5% humidified CO2, pulsed with ^3 Hthymidine (0.,5 μCi/well, 4h.) and the incorporated radioactivity determined as described above. The concentration of OKT3 antibody used was previously determined to give 75-100% of a maximal response.

[5] = system: human lymphocytes; assay: Binding of [^125 I]-CKS-17-BSA to cultured human lymphocytes; conditions: >1000 fold excess of unlabeled BSA conjugate
Method: Human mononuclear cells were stimulated for 3 days with PHA, washed free of lectin, cultured for 10 days with 10% of a human IL-2 preparation (electronucleonics) washed and resuspended to 5×10^6 cells/ml in phosphate-buffered-saline, pH 7.2 (PBS) containing 0.1% BSA. […] Binding was terminated and unbounded [^125 I]-CKS-17-BSA removed by rapid (30 sec.) centrifugation of the cells through oil. The cell associated radioactivity was measured using a gamma radiation counter.

Substance	effect upon CTLL-2 cell proliferation [1]	O2^- Release ([2]; dilution 1:20)	O2^- Release ([2]; dilution 1:40)	average inhibition of CTLL-2 proliferation ([1]; ca. 3.75 μM)	average inhibition of CTLL-2 proliferation ([1]; ca. 7.5 μM)	average inhibition of CTLL-2 proliferation ([1]; ca. 15 μM)	average inhibition of human two-way MLC ([3]; 3.75 μM)	average inhibition of human two-way MLC ([3]; 7.5 μM)	average inhibition of human two-way MLC ([3]; 15 μM)	average inhibition of OKT3-stimulated lymphocyte proliferation ([4]; ca. 3.75 μM)	average inhibition of OKT3-stimulated lymphocyte proliferation ([4]; ca. 7.5 μM)	average inhibition of OKT3-stimulated lymphocyte proliferation ([4]; ca. 15 μM)	inhibition of [^125 I]-CKS-17-BSA binding by excess unlabelled material [5]
PPFSLSPVPTL [SP-70]	little or no effect	10.7 ± 0.5 nmoles/5 minues/1.2 × 10^6 mon	11.6 ± 0.2 nmoles/5 minues/1.2 × 10^6 mon	–	–	–	–	–	–	–	–	–	–
Glu-Val-Val-Leu-Glnpartial Asn-Arg-Arg-Gly-Leu-Asp-Leu-Leu (chain 1 EVVLQ; chain 2 NRRGLDLL; printed: Glu-Val-Val-Leu-Gln; printed: Asn-Arg-Arg-Gly-Leu-Asp-Leu-Leu) [SP-9]	little or no effect	10.6 ± 0.3 nmoles/5 minues/1.2 × 10^6 mon	12.4 ± 0.5 nmoles/5 minues/1.2 × 10^6 mon	–	–	–	–	–	–	–	–	–	–
LQARILAVERYLKDQQL [CS-3]	–	–	–	3.5%	23.2%	81.8%	44.5%	74.0%	88.5%	23.2%	33.4%	40.4%	binding could be inhibited
